The values below come from article PMC9848371, “Synthesis, kinetic studies and in-silico investigations of novel quinolinyl-iminothiazolines as alkaline phosphatase inhibitors” (Journal of Enzyme Inhibition and Medicinal Chemistry, 2023).

For series [1], the target named is T1, calf intestinal alkaline phosphatase (Bos taurus, UniProt P19111). Briefly: Alkaline phosphatase inhibition assay (spectrophotometric, p-NPP substrate). Format: biochemical. The note with it: Mean ± SEM, pH 9.5, 37 °C. As for the experimental part: The inhibitory activity of calf intestinal alkaline phosphatase was evaluated using spectrophotometric assay as previously reported in our studies[55]^,[56]. In addition, Kinetic mechanism analysis was conducted to determine the mechanism of inhibition. […] The detailed procedure for alkaline phosphate inhibition assay and kinetic mechanism analysis is given in supplementary file. […]
Alkaline phosphatase inhibition assay and kinetic mechanism analysis
The reaction mixture comprised of 50 mM Tris -HCl buffer (5 mM MgCl2, 0.1 mM ZnCl2 pH 9.5), the compound (0.1 mM with final DMSO 1% (v/v) and mixture was pre -incubated for 10 min by adding 5 µL of CIALP (0.025 U/mL). Then, 10 µL of substrate (0.5 mM p-NPP (para nitrophenyl phosphate disodium salt) was added to initiate the reaction and the assay mixture was incubated again for 30 min at 37 °C. The change in absorbance of released p-nitrophenolate was monitored at 405 nm, using a 96-well microplate reader (SpectraMax ABS, USA). All the experiments were repeated three times in a triplicate manner.
The Alkaline Phosphatase activities were calculated according to the following formula: […]

In series [2] the target is T1, calf intestinal alkaline phosphatase. Briefly: Kinetic mechanism analysis (Lineweaver-Burk plot). Format: biochemical. The conditions noted are these: for Km / Vmax: substrate para nitrophenyl phosphate disodium salt. As for the experimental part: The inhibitory activity of calf intestinal alkaline phosphatase was evaluated using spectrophotometric assay as previously reported in our studies[55]^,[56]. In addition, Kinetic mechanism analysis was conducted to determine the mechanism of inhibition. […] The detailed procedure for alkaline phosphate inhibition assay and kinetic mechanism analysis is given in supplementary file.
According to the EI and ESI constants, respectively, it was determined if the compounds had the ability to inhibit the free enzyme and the enzyme-substrate complex. Figure 4 illustrates a succession of straight lines obtained from the Lineweaver–Burk plot of the enzyme’s kinetic studies against the substrate para nitrophenyl phosphate disodium salt at various inhibitor doses (A).
Where ODcontrol and ODsample represents the optical v densities in the absence and presence of […]
The inhibitor 6g concentrations were used 0.00, 0.169, 0.337 and 0.674 µM, Substrate p-NPP concentrations were 10, 5, 2.5, 1.25, 0.625 and 0.3125 mM. Pre-incubation time and other conditions were same as described in alkaline phosphatase inhibition assay section. Maximal initial velocities were determined from initial linear portion of absorbances up to 10 minutes after addition of enzyme at per minute’s interval. The inhibition type on the enzyme was assayed by Lineweaver-Burk plot of inverse of velocities (1/V) versus inverse of substrate concentration 1/[S] mM-1. The EI dissociation constant Ki was determined by secondary plot of 1/V versus inhibitor […]
Information Classification: General

“Also recorded” adds a separate entry of the source.

T1 sequence (P19111 20-533): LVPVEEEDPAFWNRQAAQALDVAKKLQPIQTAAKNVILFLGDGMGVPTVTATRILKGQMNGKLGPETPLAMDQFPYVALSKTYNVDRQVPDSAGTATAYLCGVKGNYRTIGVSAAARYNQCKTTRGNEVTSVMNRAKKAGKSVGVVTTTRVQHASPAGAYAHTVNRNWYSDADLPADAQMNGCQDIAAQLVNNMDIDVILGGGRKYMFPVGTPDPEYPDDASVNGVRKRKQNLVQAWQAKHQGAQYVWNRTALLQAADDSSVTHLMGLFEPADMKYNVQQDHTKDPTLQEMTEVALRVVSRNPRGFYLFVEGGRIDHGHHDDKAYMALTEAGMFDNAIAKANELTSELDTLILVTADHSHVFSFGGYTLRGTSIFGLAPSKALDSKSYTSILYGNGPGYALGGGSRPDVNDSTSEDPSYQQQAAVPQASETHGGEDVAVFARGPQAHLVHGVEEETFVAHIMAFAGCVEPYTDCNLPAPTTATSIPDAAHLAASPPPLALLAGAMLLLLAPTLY

Take `CCCCC(=O)/N=c1/scc(-c2ccc(Br)cc2)n1-c1cnc2ccccc2c1` [Compound 6b]: the midpoint of inhibition in series [1], the IC50, lay at 3150 ± 251 nM.
Same read-out and setting: as for `O=C(/N=c1/scc(-c2ccc(Br)cc2)n1-c1cnc2ccccc2c1)c1ccc(Cl)cc1Cl` [Compound 6i, N-dichlorobenzamide quinolinyl iminothiazoline], the figure is 957 ± 71 nM.
For the molecule `Cc1ccc(C(=O)/N=c2/scc(-c3ccc(Br)cc3)n2-c2cnc3ccccc3c2)cc1` [Compound 6h], the melting point (in general, the temperature, or range, at which the solid turns liquid) was in the range of 103 to 105 °C. Besides, the IC50 (commonly the midpoint of a concentration-inhibition curve) in series [1] was 6300 ± 634 nM.
In series [1], `CCCC(=O)/N=c1/scc(-c2ccc(Br)cc2)n1-c1cnc2ccccc2c1` [Compound 6a] registered an IC50 of 7250 ± 435 nM.
On to `CCCCCC(=O)/N=c1/scc(-c2ccc(Br)cc2)n1-c1cnc2ccccc2c1` [Compound 6c, (E)-N-(4-(4-Bromophenyl)-3-(quinolin-3-yl)thiazol-2(3H)-ylidene)hexanamide], for which the melting point is 181 to 182 °C. The molecule further displayed an IC50 in series [1] of 4240 ± 241 nM.
In turn, `O=C(/N=c1/scc(-c2ccc(Br)cc2)n1-c1cnc2ccccc2c1)c1cc([N+](=O)[O-])cc([N+](=O)[O-])c1` [Compound 6j, N-nitrobenzamide quinolinyl iminothiazoline] returned an IC50 in series [1] of 509 ± 36 nM.
`O=C(/N=c1/scc(-c2ccc(Br)cc2)n1-c1cnc2ccccc2c1)c1ccccc1` [Compound 6g, (E)-N-(4-(4-bromophenyl)-3-(quinolin-3-yl)thiazol-2(3H)-ylidene)benzamide] showed a melting point of 217 to 220 °C. This molecule also came in with an IC50 in series [1] of 337 ± 15 nM. Further, in series [2] (6g concentration 0.169 µM), the Km – broadly, the concentration of substrate that gives half-maximal velocity – was 310 µM and the Vmax was 0.00204 ΔA /Min. Further, in series [2] (6g concentration 0.337 µM), the Km is 310 µM and the Vmax is reported as 0.00175 ΔA /Min. In series [2] (6g concentration 0.674 µM), the Km worked out at 310 µM and the Vmax is reported as 0.00133 ΔA /Min. Further, the Inhibition type entry in series [2] (Lineweaver-Burk plot) is on record as “non-competitively; also recorded: Non-Competitive”. Also, the Ki (usually the dissociation constant of the complex between target and ligand, obtained from inhibition or displacement) in series [2] (secondary plot of slope vs inhibitor concentration, read-out: Ki (EI dissociation constant)) worked out at 470 nM.
Turning to `CCCCCCC(=O)N=c1scc(-c2ccc(Br)cc2)n1-c1cnc2ccccc2c1` [Compound 6d], the melting point is 188 to 190 °C. In series [1], this molecule displayed an IC50 of 886 ± 74 nM.
The molecule `CCCCCCCCCC(=O)/N=c1/scc(-c2ccc(Br)cc2)n1-c1cnc2ccccc2c1` [Compound 6f] displayed an IC50 in series [1] of 8680 ± 908 nM.
Still for that read-out and setting: as for `CCCCCCCC(=O)N=c1scc(-c2ccc(Br)cc2)n1-c1cnc2ccccc2c1` [Compound 6e], the figure is 754 ± 55 nM.
